According to patent US12084473B2, “β-D-2′-deoxy-2′-α-fluoro-2′-β-C-substituted-2-modified-N6-substituted purine nucleotides for HCV treatment” (Atea Pharmaceuticals, Inc., priority 2015, dated 2024):
pEC50, pIC50: −log10 of the molar value.

Legend:
human hepatocytes = assay: Metabolic studies in primary hepatocytes; type: in vitro ADME; conditions: 10 μM, 2-24 hr
Protocol: The metabolism of compounds 25, 27 and 5-2, at a concentration of 10 μM, were investigated in fresh primary cultures of human, dog and mouse hepatocytes. Plated hepatocytes from humans (XenoTech, mixed gender, pooled from 10 donors), male Beagle dog (BioreclamationIVT), and male ICR/CD-1 mice (BioreclamationIVT, 8 donors) in 6-well plates with matrigel overlay were incubated in singlet with 10 μM TA. After 2, 4, 6, 8 or 24 hr, intracellular levels of nucleotide prodrugs and their potential metabolites (prodrugs, monophosphates, triphosphates and nucleosides) were quantitated by LC-MS/MS. Concentrations below the lower limit of quantitation (1.5 pmol/10^6 cells for prodrugs, monophosphates and nucleosides and 12 pmol/10^6 cells for triphosphates) were extrapolated from the standard curves.

HCV wild type replicon = assay: microbe, parasite or virus in culture; type: cell-based
Protocol: (§1) A transient transfection assay was performed to determine the sensitivity of the […] of HCV to test compounds. Huh-7 cells were electroporated in the presence of RNA transcribed from wild type or S282T HCV replicon plasmids from the T7 promoter. The transfected cells were seeded in to 96-well plates at 7.5×10^3 cells per well in Dulbecco's Modified Eagle's medium. After 24 hr of incubation, medium was removed and replaced with fresh medium containing no or various concentrations of test compounds. Following an additional 96-hr incubation, the anti-HCV activity was measured by luciferase endpoint with Britelite™ Plus luminescence reporter gene kit (Perkin Elmer, Shelton, CT). Duplicate plates were treated and incubated in parallel for assessment of cellular toxicity by staining with the tetrazolium dye XTT.

HCV S282T replicon = assay: microbe, parasite or virus in culture; type: cell-based
Protocol: as §1

iPS Cardiomyocytes = assay: iPS Cardiomyocyte Assay; type: cell-based, human; conditions: 3 days, XTT
Protocol: iPS Cardiomyocytes (Cellular Dynamics) were seeded in microliter plates at 1.5×10^4 cells per well. After 48-hr incubation, cells were washed and maintenance medium containing serially diluted TA was added in triplicate. After incubating for an additional 3 days, cell viability was measured by staining with XTT and CC50 values were calculated.

Huh-7 luc/neo ET cells = assay: Cytotoxicity by XTT staining in replicon cells; conditions: read-out: HCV Replicon CC50; XTT, 72 hours
How it was run: (§2)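 Cells cultured 24 h, then exposed 72 h to six half-log dilutions (top 100.0 or 1.0 μM) in triplicate, with interferon-alpha2b reference and medium-only controls. Viability read by XTT staining on a parallel plate; TC50 derived from concentration-response.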

[1] = Cytotoxicity by XTT staining in replicon cells; conditions: human
How it was run: as §2

[2] = tested on: HCV Genotype 3a-2, NS5B Mutation none; assay: microbe, parasite or virus in culture; type: cell-based
Protocol: (§3) Various patient-derived HCV genotypes containing wild-type and resistance-associated variants were used to determine their relative replication sensitivity to test compounds. Replicon resistance test vectors (RTVs) containing the NS5B genomic regions were prepared using viral RNA isolated from plasma of HCV patients. Each NS5B region was amplified by reverse-transcription polymerase chain reaction and cloned into an HCV replicon RTV which was then transferred by electroporation into Huh-7 cells.

[3] = tested on: HCV Genotype 4a, NS5B Mutation none; assay: microbe, parasite or virus in culture; type: cell-based
Protocol: as §3

[4] = tested on: HCV Genotype 3a-1, NS5B Mutation none; assay: microbe, parasite or virus in culture; type: cell-based
Protocol: as §3

[5] = tested on: HCV Genotype 1a, NS5B Mutation L159F; assay: microbe, parasite or virus in culture; type: cell-based
Protocol: as §3

[6] = tested on: HCV Genotype 1a, NS5B Mutation L159F and S282T; assay: microbe, parasite or virus in culture; type: cell-based
Protocol: as §3

[7] = tested on: HCV Genotype 4d, NS5B Mutation none; assay: microbe, parasite or virus in culture; type: cell-based
Protocol: as §3

[8] = tested on: HCV Genotype 1a, NS5B Mutation none; assay: microbe, parasite or virus in culture; type: cell-based
Protocol: as §3

[9] = tested on: HCV Genotype 2b, NS5B Mutation none; assay: microbe, parasite or virus in culture; type: cell-based
Protocol: as §3

[10] = tested on: HCV genotype 1b luciferase reporter replicon; assay: microbe, parasite or virus in culture; type: cell-based; conditions: Hepatitis C virus, HuH-7-Luc/Neo-ET, 72 h, read-out: HCV Replicon EC50/EC95: EC50
[11] = tested on: human bone marrow progenitor cells; assay: Human Bone Marrow Progenitor Cell Assay; type: cell-based; conditions: 14-day incubations, colony counts
Protocol: Fresh human bone marrow progenitor cells (Invitrogen) suspended in either BFU-E or GM-CSF-specific culture medium were added, at 10^5 cells/well, to triplicate serial dilutions of TA in 6-well plates. After 14-day incubations, colony counts were used to determine CC50 values. BFU-E colonies were confirmed using the benzidene technique.

[12] = Hepatitis C virus, 96 h, read-out: IC50 Value
[13] = Hepatitis C virus, read-out: IC50 Value
[14] = genotype 3a-2, no NS5B mutation
[15] = genotype 3a-1, no NS5B mutation
[16] = genotype 1a, NS5B L159F and S282T

**Q.** Which “predominant metabolite observed in cultured human hepatocytes” value (human hepatocytes) does the source give for CC(C)OC(=O)[C@H](C)N[P@](=O)(OCC1O[C@@H](n2cnc3c(N(C)C4CC4)nc(N)nc32)[C@](C)(F)[C@@H]1O)Oc1ccccc1 (stereo partly drawn) [Compound 27, isopropyl ((((S)-(2R,3R,4R,5R)-5-(2-amino-6-(methylcyclopropanamino)-9H-purin-9-yl)-4-fluoro-3-hydroxy-4-methyltetrahydrofuran-2-yl)methoxy)-phenoxy-phosphoryl)-L-alaninate] here?
**A.** The value was “β-D-2′-deoxy-2′-α-fluoro-2′-β-methyl-guanine triphosphate”.

**Q.** And the IC95 Value (HCV wild type replicon)?
**A.** The IC95 Value was 4.1 nM.

**Q.** What about the pIC50 (HCV wild type replicon; [12]) of the same molecule?
**A.** The pIC50 was > 9.00.

**Q.** And the “Fold Change in IC50 from Sofosbuvir” value (HCV wild type replicon; NS5B Mutation None)?
**A.** Its value is >36.4.

**Q.** And the “Fold Change in IC95 from Sofosbuvir” value (HCV wild type replicon; NS5B Mutation None)?
**A.** Its value is 53.2.

**Q.** What about the “cross-resistance to S282T variant” value (HCV S282T replicon) of the same molecule?
**A.** The value was “neither 25, 27, nor 5-2 compounds showed any evidence of cross-resistance”.

**Q.** And the pIC50 (HCV S282T replicon; [12])?
**A.** The pIC50 was > 9.00.

**Q.** What about the “Fold Change in IC50 from Sofosbuvir” value (HCV S282T replicon; NS5B Mutation S282T) of the same molecule?
**A.** Its value is >278.

**Q.** What about the “Fold Change in IC95 from Sofosbuvir” value (HCV S282T replicon; NS5B Mutation S282T) of the same molecule?
**A.** Its value is >84.7.

**Q.** And the IC95 Value (HCV S282T replicon; NS5B Mutation S282T, transient assay, 96-hr)?
**A.** The IC95 Value was 11.8 nM.

**Q.** What about the “cytotoxicity against iPS cardiomyocytes in vitro” value (iPS Cardiomyocytes) of the same molecule?
**A.** The value was “no cytotoxicity”.

**Q.** What about the CC50 (Huh-7 luc/neo ET cells) of the same molecule?
**A.** Its CC50 is > 100000 nM.

**Q.** What about the CC50 at 72 h [1] of the same molecule?
**A.** Its CC50 at 72 h is > 100000 nM.

**Q.** And the pIC50 [2, 13]?
**A.** Its pIC50 is 8.35.

**Q.** What about the “Fold Change in IC50 from Sofosbuvir” value [2, 14] of the same molecule?
**A.** The value was 27.5.

**Q.** And the “Fold Change in IC95 from Sofosbuvir” value [2, 14]?
**A.** The value was 34.6.

**Q.** And the “IC95 Value” [2, 14]?
**A.** The value was 23.3 nM.

**Q.** What about the pIC50 [3, 13] of the same molecule?
**A.** The pIC50 was 8.44.

**Q.** What about the “Fold Change in IC50 from Sofosbuvir” value ([3]; genotype 4a, no NS5B mutation) of the same molecule?
**A.** Its value is 20.7.

**Q.** And the “Fold Change in IC95 from Sofosbuvir” value ([3]; genotype 4a, no NS5B mutation)?
**A.** The value was 17.9.

**Q.** And the “IC95 Value” ([3]; genotype 4a, no NS5B mutation)?
**A.** Its value is 38.1 nM.

**Q.** And the pIC50 [4, 13]?
**A.** The pIC50 was 8.36.

**Q.** And the “Fold Change in IC50 from Sofosbuvir” value [4, 15]?
**A.** Its value is 28.4.

**Q.** And the “Fold Change in IC95 from Sofosbuvir” value [4, 15]?
**A.** Its value is 27.2.

**Q.** What about the “IC95 Value” [4, 15] of the same molecule?
**A.** Its value is 25.4 nM.

**Q.** What about the “cross-resistance to L159F mutant” value [5] of the same molecule?
**A.** Its value is “neither 25, 27 nor 5-2 compound showed any evidence of cross-resistance”.

**Q.** What about the pIC50 [5, 13] of the same molecule?
**A.** The pIC50 was 8.29.

**Q.** What about the “Fold Change in IC50 from Sofosbuvir” value ([5]; genotype 1a, NS5B L159F) of the same molecule?
**A.** Its value is 22.3.

**Q.** And the “Fold Change in IC95 from Sofosbuvir” value ([5]; genotype 1a, NS5B L159F)?
**A.** The value was 29.5.

**Q.** What about the “IC95 Value” ([5]; genotype 1a, NS5B L159F) of the same molecule?
**A.** Its value is 36.2 nM.

**Q.** What about the “cross-resistance to L159F and S282T mutant” value [6] of the same molecule?
**A.** The value was “neither 25, 27 nor 5-2 compound showed any evidence of cross-resistance”.

**Q.** What about the pIC50 [6, 13] of the same molecule?
**A.** The pIC50 was 7.83.

**Q.** And the “Fold Change in IC50 from Sofosbuvir” value [6, 16]?
**A.** Its value is 108.4.

**Q.** What about the “Fold Change in IC95 from Sofosbuvir” value [6, 16] of the same molecule?
**A.** Its value is 119.7.

**Q.** And the “IC95 Value” [6, 16]?
**A.** The value was 141.6 nM.

**Q.** What about the pIC50 [7, 12] of the same molecule?
**A.** Its pIC50 is 8.25.

**Q.** What about the “Fold Change in IC50 from Sofosbuvir” value ([7]; genotype 4d, no NS5B mutation) of the same molecule?
**A.** The value was 16.7.

**Q.** What about the “Fold Change in IC95 from Sofosbuvir” value ([7]; genotype 4d, no NS5B mutation) of the same molecule?
**A.** The value was 26.6.

**Q.** What about the “IC95 Value” ([7]; genotype 4d, no NS5B mutation) of the same molecule?
**A.** The value was 38.4 nM.

**Q.** What about the pIC50 [8, 13] of the same molecule?
**A.** Its pIC50 is 8.38.

**Q.** And the “Fold Change in IC50 from Sofosbuvir” value ([8]; genotype 1a, no NS5B mutation)?
**A.** Its value is 15.0.

**Q.** And the “Fold Change in IC95 from Sofosbuvir” value ([8]; genotype 1a, no NS5B mutation)?
**A.** Its value is 19.3.

**Q.** What about the “IC95 Value” ([8]; genotype 1a, no NS5B mutation) of the same molecule?
**A.** Its value is 26.4 nM.

**Q.** And the pIC50 [9, 13]?
**A.** The pIC50 was 8.51.

**Q.** What about the “Fold Change in IC50 from Sofosbuvir” value ([9]; genotype 2b, no NS5B mutation) of the same molecule?
**A.** Its value is 14.4.

**Q.** What about the “Fold Change in IC95 from Sofosbuvir” value ([9]; genotype 2b, no NS5B mutation) of the same molecule?
**A.** The value was 20.1.

**Q.** What about the “IC95 Value” ([9]; genotype 2b, no NS5B mutation) of the same molecule?
**A.** Its value is 14.7 nM.

**Q.** What about the pEC50 [10] of the same molecule?
**A.** The pEC50 was 8.30.

**Q.** And the “cytotoxicity against bone marrow stem cells in vitro” value [11]?
**A.** The value was “no cytotoxicity”.
